Laboratory results reported in patent publication US20130116203A1, “ISOTHIOCYNATES AND GLUCOSINOLATE COMPOUNDS AND ANTI-TUMOR COMPOSITIONS CONTAINING SAME” (priority 2011, published 2013).

What was measured:
Format in all cases: cell-based
[1] = test system: MCF7 (human breast carcinoma) cells; test: Cell Titer-Glo cytotoxicity assay, MCF7; conditions: inferred from racemate 13 vs 2
Text: (§1) Five serial 1:2 dilutions were made with anhydrous DMSO at 100× the final concentration used in the assay.

[2] = test system: NCI/ADR RES (human breast carcinoma) cells; test: Cell Titer-Glo cytotoxicity assay, NCI/ADR-RES
Text: as §1

[3] = test system: NCI-H460 (human breast carcinoma) cells; test: Cell Titer-Glo cytotoxicity assay, NCI-H460; conditions: inferred from racemate 13 vs 2
Text: as §1

[4] = test system: eight human cancer cell lines; test: Average cytotoxicity across the human cancer cell line panel
Text: as §1

C[S@+]([O-])CCCCN=C=S [D-sulforaphane]
% bioactive [1]: 0% | % bioactive ([2]; NCI/ADR RES, inferred from racemate 13 vs 2): 9% | % bioactive [3]: 14%

S=C=NCc1cccnc1 [Compound 22, 3-(isothiocyanatomethyl)pyridine]
fold increase in potency over 23 ([2]; NCI/ADR RES cells): ≤ 10 fold | increase in effectiveness relative to L-sulforaphane ([4]; potency in NCI/ADR RES and selectivity over NmuMG taken together): ~30 fold

S=C=NCc1ccccc1 [Compound 23, 1-(isothiocyanatomethyl)benzene]
fold increase in potency over fully-saturated 18 ([4]; average IC50 compared): > 3 fold
